The source of these data is patent US8350032B2, “Integrated photoactive agents for real-time monitoring of hemostasis” (MediBeacon Development, LLC, priority 2007, dated 2013).

This experiment deals with production of thrombin via activation of the extrinsic cascade (tissue factor pathway). The experiment in a line: whole blood activity screen: inhibition of thrombin production when clotting is activated via the tissue factor pathway (extrinsic cascade). It counts as biochemical. The note with it: nine concentrations, in triplicate, FIG. 4. The method, then: The compound (MP3117) of Example 1 was tested for its ability to inhibit the production of thrombin via activation of the extrinsic cascade. In particular, an assay that included a whole blood activity screen was performed. In this regard, nine aqueous solutions containing varying concentrations of the compound of Example 1 were tested for their ability to inhibit thrombin production when clotting was activated via the tissue factor pathway (in triplicate). The data from the assay was also utilized to extract the IC50 for the compound. Incidentally, “IC50” refers to the amount of a compound necessary to inhibit 50% of the active enzyme to which it binds.

Broadly, the IC50 is the concentration that gives 50% inhibition. Lower therefore signals greater potency in that assay.

`N=C(N)c1ccc(CNC(=O)c2nc(N)c(C(=O)NCc3ccc(C(=N)N)cc3)nc2N)cc1` [Example 1, 3,6-diamino-N2,N5-bis(4-carbamimidoylbenzyl)pyrazine-2,5-dicarboxamide] registered an IC50 of 12.4 ± 0.79 nM.
